Results from paper PMC11033320, “Activation of p53 signaling and regression of breast and prostate carcinoma cells by spirooxindole-benzimidazole small molecules” (Frontiers in Pharmacology, 2024).

Tests used:
CCRF-CEM = experiment: NCI anticancer screening, Leukemia CCRF-CEM; assay type: cell-based; settings: Homo sapiens, read-out: % Growth Inhibition (GI %)
Source text: (§1) The compound has been processed according to standard method NCI-60 Human Tumor Cell Lines Screen for organic compound at development therapeutic program (DTP). Requests for access to this national resource can be submitted online at: […]

HL-60(TB) = experiment: NCI anticancer screening, Leukemia HL-60(TB); assay type: cell-based; settings: Homo sapiens, read-out: % Growth Inhibition (GI %)
Source text: as §1

K-562 = experiment: NCI anticancer screening, Leukemia K-562; assay type: cell-based; settings: Homo sapiens, K562; K-562, 10 μM; read-out: % Growth Inhibition (GI %)
Source text: as §1

A549/ATCC = experiment: NCI anticancer screening, Non-Small Cell Lung Cancer A549/ATCC; assay type: cell-based; settings: Homo sapiens, read-out: % Growth Inhibition (GI %)
Source text: as §1

HOP-62 = experiment: NCI anticancer screening, Non-Small Cell Lung Cancer HOP-62; assay type: cell-based; settings: Homo sapiens; HOP-62, 10 μM; read-out: % Growth Inhibition (GI %)
Source text: as §1

NCI-H23 = experiment: NCI anticancer screening, Non-Small Cell Lung Cancer NCI-H23; assay type: cell-based; settings: Homo sapiens; NCI-H23, 10 μM; read-out: % Growth Inhibition (GI %)
Source text: as §1

NCI-H322M = experiment: NCI anticancer screening, Non-Small Cell Lung Cancer NCI-H322M; assay type: cell-based; settings: Homo sapiens, read-out: % Growth Inhibition (GI %)
Source text: as §1

HCC-2998 = experiment: NCI anticancer screening, Colon Cancer HCC-2998; assay type: cell-based; settings: Homo sapiens; HCC-2998, 10 μM; read-out: % Growth Inhibition (GI %)
Source text: as §1

HCT-116 = experiment: NCI anticancer screening, Colon Cancer HCT-116; assay type: cell-based; settings: Homo sapiens; HCT-116, 10 μM; read-out: % Growth Inhibition (GI %)
Source text: as §1

HCT-15 = experiment: NCI anticancer screening, Colon Cancer HCT-15; assay type: cell-based; settings: Homo sapiens; HCT-15, 10 μM; read-out: % Growth Inhibition (GI %)
Source text: as §1

HT29 = experiment: NCI anticancer screening, Colon Cancer HT29; assay type: cell-based; settings: Homo sapiens, HT-29; HT29, 10 μM; read-out: % Growth Inhibition (GI %)
Source text: as §1

KM12 = experiment: NCI anticancer screening, Colon Cancer KM12; assay type: cell-based; settings: Homo sapiens; KM12, 10 μM; read-out: % Growth Inhibition (GI %)
Source text: as §1

SW-620 = experiment: NCI anticancer screening, Colon Cancer SW-620; assay type: cell-based; settings: Homo sapiens; SW-620, 10 μM; read-out: % Growth Inhibition (GI %)
Source text: as §1

SF-268 = experiment: NCI anticancer screening, CNS Cancer SF-268; assay type: cell-based; settings: Homo sapiens; SF-268, 10 μM; read-out: % Growth Inhibition (GI %)
Source text: as §1

SF-295 = experiment: NCI anticancer screening, CNS Cancer SF-295; assay type: cell-based; settings: Homo sapiens; SF-295, 10 μM; read-out: % Growth Inhibition (GI %)
Source text: as §1

SNB-75 = experiment: NCI anticancer screening, CNS Cancer SNB-75; assay type: cell-based; settings: Homo sapiens; SNB-75, 10 μM; read-out: % Growth Inhibition (GI %)
Source text: as §1

U251 = experiment: NCI anticancer screening, CNS Cancer U251; assay type: cell-based; settings: Homo sapiens, U-251; U251, 10 μM; read-out: % Growth Inhibition (GI %)
Source text: as §1

LOX IMVI = experiment: NCI anticancer screening, Melanoma LOX IMVI; assay type: cell-based; settings: Homo sapiens, read-out: % Growth Inhibition (GI %)
Source text: as §1

MALME-3M = experiment: NCI anticancer screening, Melanoma MALME-3M; assay type: cell-based; settings: Homo sapiens, read-out: % Growth Inhibition (GI %)
Source text: as §1

M14 = experiment: NCI anticancer screening, Melanoma M14; assay type: cell-based; settings: Homo sapiens; M14, 10 μM; read-out: % Growth Inhibition (GI %)
Source text: as §1

MDA-MB-435 = experiment: NCI anticancer screening, Melanoma MDA-MB-435; assay type: cell-based; settings: Homo sapiens; MDA-MB-435, 10 μM; read-out: % Growth Inhibition (GI %)
Source text: as §1

SK-MEL-28 = experiment: NCI anticancer screening, Melanoma SK-MEL-28; assay type: cell-based; settings: Homo sapiens; SK-MEL-28, 10 μM; read-out: % Growth Inhibition (GI %)
Source text: as §1

SK-MEL-5 = experiment: NCI anticancer screening, Melanoma SK-MEL-5; assay type: cell-based; settings: Homo sapiens; SK-MEL-5, 10 μM; read-out: % Growth Inhibition (GI %)
Source text: as §1

IGROV1 = experiment: NCI anticancer screening, Ovarian Cancer IGROV1; assay type: cell-based; settings: Homo sapiens, IGROV-1; IGROV1, 10 μM; read-out: % Growth Inhibition (GI %)
Source text: as §1

OVCAR-4 = experiment: NCI anticancer screening, Ovarian Cancer OVCAR-4; assay type: cell-based; settings: Homo sapiens; OVCAR-4, 10 μM; read-out: % Growth Inhibition (GI %)
Source text: as §1

OVCAR-5 = experiment: NCI anticancer screening, Ovarian Cancer OVCAR-5; assay type: cell-based; settings: Homo sapiens; OVCAR-5, 10 μM; read-out: % Growth Inhibition (GI %)
Source text: as §1

OVCAR-8 = experiment: NCI anticancer screening, Ovarian Cancer OVCAR-8; assay type: cell-based; settings: Homo sapiens; OVCAR-8, 10 μM; read-out: % Growth Inhibition (GI %)
Source text: as §1

NCI/ADR-RES = experiment: NCI anticancer screening, Ovarian Cancer NCI/ADR-RES; assay type: cell-based; settings: Homo sapiens, read-out: % Growth Inhibition (GI %)
Source text: as §1

786-0 = experiment: NCI anticancer screening, Renal Cancer 786-0; assay type: cell-based; settings: Homo sapiens; 786-0, 10 μM; read-out: % Growth Inhibition (GI %)
Source text: as §1

ACHN = experiment: NCI anticancer screening, Renal Cancer ACHN; assay type: cell-based; settings: Homo sapiens, read-out: % Growth Inhibition (GI %)
Source text: as §1

RXF 393 = experiment: NCI anticancer screening, Renal Cancer RXF 393; assay type: cell-based; settings: Homo sapiens; RXF 393, 10 μM; read-out: % Growth Inhibition (GI %)
Source text: as §1

SN12C = experiment: NCI anticancer screening, Renal Cancer SN12C; assay type: cell-based; settings: Homo sapiens, read-out: % Growth Inhibition (GI %)
Source text: as §1

DU-145 = experiment: NCI anticancer screening, DU-145; assay type: cell-based; settings: Homo sapiens; DU-145, 10 μM; read-out: % Growth Inhibition (GI %)
Source text: as §1

MCF7 = experiment: NCI anticancer screening, Breast Cancer MCF7; assay type: cell-based; settings: Homo sapiens; MCF7, 10 μM; read-out: % Growth Inhibition (GI %)
Source text: as §1

HS 578T = experiment: NCI anticancer screening, Breast Cancer HS 578T; assay type: cell-based; settings: Homo sapiens, read-out: % Growth Inhibition (GI %)
Source text: as §1

BT-549 = experiment: NCI anticancer screening, Breast Cancer BT-549; assay type: cell-based; settings: Homo sapiens; BT-549, 10 μM; read-out: % Growth Inhibition (GI %)
Source text: as §1

MDA-MB-468 = experiment: NCI anticancer screening, Breast Cancer MDA-MB-468; assay type: cell-based; settings: Homo sapiens, read-out: % Growth Inhibition (GI %)
Source text: as §1

MDA-MB 231 cells = settings: for inhibition: 5 µM

| SMILES | inhibition at 10 µM (CCRF-CEM) [%] | inhibition at 10 µM (HL-60(TB)) [%] | inhibition at 10 µM (K-562) [%] | inhibition at 10 µM (A549/ATCC) [%] | inhibition at 10 µM (HOP-62) [%] | inhibition at 10 µM (NCI-H23) [%] | inhibition at 10 µM (NCI-H322M) [%] | inhibition at 10 µM (HCC-2998) [%] | inhibition at 10 µM (HCT-116) [%] | inhibition at 10 µM (HCT-15) [%] | inhibition at 10 µM (HT29) [%] | inhibition at 10 µM (KM12) [%] | inhibition at 10 µM (SW-620) [%] | inhibition at 10 µM (SF-268) [%] | inhibition at 10 µM (SF-295) [%] | inhibition at 10 µM (SNB-75) [%] | inhibition at 10 µM (U251) [%] | inhibition at 10 µM (LOX IMVI) [%] | inhibition at 10 µM (MALME-3M) [%] | inhibition at 10 µM (M14) [%] | other results |
| --- | --- | --- | --- | --- | --- | --- | --- | --- | --- | --- | --- | --- | --- | --- | --- | --- | --- | --- | --- | --- | --- |
| O=C(c1nc2ccccc2[nH]1)[C@H]1[C@H](c2ccc(Cl)cc2)C2CSCN2[C@]12C(=O)Nc1ccccc12 (stereo partly drawn) [Compound 6b, (3S,6′R)-6'-(1H-Benzo [d]imidazole-2-carbonyl)-7'-(4-chlorophenyl)-3′,6′,7′,7a′-tetrahydro-1′H-spiro [indoline-3.5′-pyrrolo [1,2-c]thiazol]-2-one] | 86.3 | 98.3 | 82.3 | 81.4 | 91.7 | 81.4 | 93.5 | 92.1 | 60.5 | 76.6 | 80.9 | 66.5 | 77 | 77.5 | 77.5 | 69.1 | 81.2 | 76.6 | 89.7 | 79.4 | inhibition at 10 µM (MDA-MB-435): 79.9%; inhibition at 10 µM (SK-MEL-28): 92.2%; inhibition at 10 µM (SK-MEL-5): 91.6%; inhibition at 10 µM (IGROV1): 68.9%; inhibition at 10 µM (OVCAR-4): 69.5%; inhibition at 10 µM (OVCAR-5): 92.5%; inhibition at 10 µM (OVCAR-8): 89.5%; inhibition at 10 µM (NCI/ADR-RES): 84.7%; inhibition at 10 µM (786-0): 97.6%; inhibition at 10 µM (ACHN): 78.2%; inhibition at 10 µM (RXF 393): 71.1%; inhibition at 10 µM (SN12C): 80.7%; inhibition at 10 µM (DU-145): 97.4%; inhibition at 10 µM (MCF7): 74.7%; inhibition at 10 µM (HS 578T): 72.1%; inhibition at 10 µM (BT-549): 97%; inhibition at 10 µM (MDA-MB-468): 89.4%; melting point: 210 to 212 °C; IC50 (MDA-MB 231 cells): 4.76 ± 0.265 µM; inhibition (MDA-MB 231 cells): 52.7 ± 2.94% |
| O=C(c1nc2ccccc2[nH]1)[C@H]1[C@H](c2ccc(C(F)(F)F)cc2)C2CSCN2[C@]12C(=O)Nc1ccccc12 (stereo partly drawn) [Compound 6c, (3S,6′R)-6'-(1H-Benzo [d]imidazole-2-carbonyl)-7'-(4-(trifluoromethyl)phenyl)-3′,6′,7′,7a′-tetrahydro-1′H-spiro [indoline-3.5′-pyrrolo [1,2-c]thiazol]-2-one] | 95 | 108 | 83.1 | 97.1 | 89.5 | 82.3 | 91.1 | 99.6 | 60 | 88.9 | 74.7 | 71.8 | 84.1 | 90.2 | 95.3 | 72.9 | 93.2 | 88.7 | 94.9 | 83.3 | inhibition at 10 µM (MDA-MB-435): 88.3%; inhibition at 10 µM (SK-MEL-28): 97.7%; inhibition at 10 µM (SK-MEL-5): 94.2%; inhibition at 10 µM (IGROV1): 67.8%; inhibition at 10 µM (OVCAR-4): 80.9%; inhibition at 10 µM (OVCAR-5): 96.1%; inhibition at 10 µM (OVCAR-8): 98.8%; inhibition at 10 µM (NCI/ADR-RES): 86%; inhibition at 10 µM (786-0): 99.4%; inhibition at 10 µM (ACHN): 89.6%; inhibition at 10 µM (RXF 393): 90.1%; inhibition at 10 µM (SN12C): 90.7%; inhibition at 10 µM (DU-145): 97%; inhibition at 10 µM (MCF7): 77.7%; inhibition at 10 µM (HS 578T): 83.9%; inhibition at 10 µM (BT-549): 107%; inhibition at 10 µM (MDA-MB-468): 91.6%; melting point: 185 to 187 °C; IC50 (MDA-MB 231 cells): 3.34 ± 0.21 µM; inhibition (MDA-MB 231 cells): 55.5 ± 2.5% |
